From patent US10131652B2, “Pyrimidinyloxy benzene derivatives as herbicides” (E. I. DU PONT DE NEMOURS AND COMPANY, priority 2014, dated 2018)
Like-named read-outs stand apart in the source and are kept apart here.

Columns and labels:
Experiment in all cases: Test E pre-/postemergence plant response
Type in all cases: in vivo
[1] = tested on: wild buckwheat (Polygonum convolvulus); details: Fallopia convolvulus, scale 0 to 100, read-out: Plant response rating, Buckwheat, Wild; for pest or weed control at 16 g/ha: 16 g ai/ha; for pest or weed control at 31 g/ha: 31 g ai/ha; for pest or weed control at 62 g/ha: 62 g ai/ha; for pest or weed control at 125 g/ha: 125 g ai/ha
Outline: (§1)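 Pre-emergence: seeds sown in silt loam soil and sprayed with test chemicals in a non-phytotoxic solvent/surfactant mix. Post-emergence: plants at 2–18 cm (1- to 4-leaf stage) in peat/vermiculite medium treated with the same formulation. Visual rating versus controls after 7–21 days, 0 (no effect) to 100 (complete control).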

[2] = tested on: chamomile (scentless chamomile, Matricaria inodora); details: Tripleurospermum inodorum, scale 0 to 100, read-out: Plant response rating, Chamomile; for pest or weed control at 16 g/ha: 16 g ai/ha; for pest or weed control at 31 g/ha: 31 g ai/ha; for pest or weed control at 62 g/ha: 62 g ai/ha; for pest or weed control at 125 g/ha: 125 g ai/ha
Outline: as §1

[3] = tested on: canarygrass (Phalaris minor); details: scale 0 to 100, read-out: Plant response rating, Canarygrass; for pest or weed control at 16 g/ha: 16 g ai/ha; for pest or weed control at 31 g/ha: 31 g ai/ha; for pest or weed control at 62 g/ha: 62 g ai/ha; for pest or weed control at 125 g/ha: 125 g ai/ha
Outline: as §1

[4] = tested on: winter barley (Hordeum vulgare); details: post-emergence, Postemergence, scale 0 to 100, read-out: Plant response rating, Barley, Winter
Outline: as §1

[5] = tested on: field poppy (Papaver rhoeas); details: scale 0 to 100, read-out: Plant response rating, Field Poppy; for pest or weed control at 16 g/ha: 16 g ai/ha; for pest or weed control at 31 g/ha: 31 g ai/ha; for pest or weed control at 62 g/ha: 62 g ai/ha; for pest or weed control at 125 g/ha: 125 g ai/ha
Outline: as §1

[6] = tested on: spring wheat (Triticum aestivum); details: post-emergence, Postemergence, scale 0 to 100, read-out: Plant response rating, Wheat, Spring
Outline: as §1

[7] = tested on: deadnettle (henbit deadnettle, Lamium amplexicaule); details: scale 0 to 100, read-out: Plant response rating, Deadnettle; for pest or weed control at 16 g/ha: 16 g ai/ha; for pest or weed control at 31 g/ha: 31 g ai/ha; for pest or weed control at 62 g/ha: 62 g ai/ha; for pest or weed control at 125 g/ha: 125 g ai/ha
Outline: as §1

[8] = tested on: oilseed rape (Brassica napus); details: scale 0 to 100, read-out: Plant response rating, Oilseed Rape; for plant injury at 16 g/ha: 16 g ai/ha; for plant injury at 31 g/ha: 31 g ai/ha; for plant injury at 62 g/ha: 62 g ai/ha; for plant injury at 125 g/ha: 125 g ai/ha
Outline: as §1

[9] = tested on: downy bromegrass (Bromus tectorum); details: scale 0 to 100, read-out: Plant response rating, Bromegrass, Downy; for pest or weed control at 16 g/ha: 16 g ai/ha; for pest or weed control at 31 g/ha: 31 g ai/ha; for pest or weed control at 62 g/ha: 62 g ai/ha; for pest or weed control at 125 g/ha: 125 g ai/ha
Outline: as §1

[10] = tested on: windgrass (Apera spica-venti); details: scale 0 to 100, read-out: Plant response rating, Windgrass; for pest or weed control at 16 g/ha: 16 g ai/ha; for pest or weed control at 62 g/ha: 62 g ai/ha; for pest or weed control at 125 g/ha: 125 g ai/ha
Outline: as §1

wild oat (Avena fatua) = details: scale 0 to 100, read-out: Plant response rating, Oat, Wild; for pest or weed control at 16 g/ha: 16 g ai/ha; for pest or weed control at 31 g/ha: 31 g ai/ha; for pest or weed control at 62 g/ha: 62 g ai/ha; for pest or weed control at 125 g/ha: 125 g ai/ha
Outline: as §1

FC(F)(F)c1cc(-c2ccccc2Oc2ncc(Cl)cn2)no1 [Compound 200, 5-chloro-2-[2-[5-(trifluoromethyl)-3-isoxazolyl]phenoxy]pyrimidine]
pest or weed control at 16 g/ha ([1]; post-emergence, Postemergence): 65%
pest or weed control at 31 g/ha ([1]; post-emergence, Postemergence): 70%
pest or weed control at 62 g/ha ([1]; post-emergence, Postemergence): 95%
pest or weed control at 125 g/ha ([1]; post-emergence, Postemergence): 100%
pest or weed control at 16 g/ha ([1]; pre-emergence, Preemergence): 65%
pest or weed control at 31 g/ha ([1]; pre-emergence, Preemergence): 75%
pest or weed control at 62 g/ha ([1]; pre-emergence, Preemergence): 100%
pest or weed control at 125 g/ha ([1]; pre-emergence, Preemergence): 100%
pest or weed control at 16 g/ha ([2]; post-emergence, Postemergence): 5%
pest or weed control at 31 g/ha ([2]; post-emergence, Postemergence): 10%
pest or weed control at 62 g/ha ([2]; post-emergence, Postemergence): 10%
pest or weed control at 125 g/ha ([2]; post-emergence, Postemergence): 15%
pest or weed control at 16 g/ha ([2]; pre-emergence, Preemergence): 25%
pest or weed control at 31 g/ha ([2]; pre-emergence, Preemergence): 25%
pest or weed control at 62 g/ha ([2]; pre-emergence, Preemergence): 60%
pest or weed control at 125 g/ha ([2]; pre-emergence, Preemergence): 75%
pest or weed control at 16 g/ha ([3]; post-emergence, Postemergence): 10%
pest or weed control at 31 g/ha ([3]; post-emergence, Postemergence): 35%
pest or weed control at 62 g/ha ([3]; post-emergence, Postemergence): 45%
pest or weed control at 125 g/ha ([3]; post-emergence, Postemergence): 60%
pest or weed control at 16 g/ha ([3]; pre-emergence, Preemergence): 10%
pest or weed control at 31 g/ha ([3]; pre-emergence, Preemergence): 55%
pest or weed control at 62 g/ha ([3]; pre-emergence, Preemergence): 100%
pest or weed control at 125 g/ha ([3]; pre-emergence, Preemergence): 100%
plant injury at 16 g/ha ([4]; 16 g ai/ha): 5%
plant injury at 31 g/ha ([4]; 31 g ai/ha): 10%
plant injury at 62 g/ha ([4]; 62 g ai/ha): 20%
plant injury at 125 g/ha ([4]; 125 g ai/ha): 25%
pest or weed control at 16 g/ha ([5]; post-emergence, Postemergence): 75%
pest or weed control at 31 g/ha ([5]; post-emergence, Postemergence): 80%
pest or weed control at 62 g/ha ([5]; post-emergence, Postemergence): 100%
pest or weed control at 125 g/ha ([5]; post-emergence, Postemergence): 100%
pest or weed control at 16 g/ha ([5]; pre-emergence, Preemergence): 80%
pest or weed control at 31 g/ha ([5]; pre-emergence, Preemergence): 90%
pest or weed control at 62 g/ha ([5]; pre-emergence, Preemergence): 95%
pest or weed control at 125 g/ha ([5]; pre-emergence, Preemergence): 95%
plant injury at 16 g/ha ([6]; 16 g ai/ha): 5%
plant injury at 31 g/ha ([6]; 31 g ai/ha): 10%
plant injury at 62 g/ha ([6]; 62 g ai/ha): 20%
plant injury at 125 g/ha ([6]; 125 g ai/ha): 35%
pest or weed control at 16 g/ha ([7]; post-emergence, Postemergence): 50%
pest or weed control at 31 g/ha ([7]; post-emergence, Postemergence): 60%
pest or weed control at 62 g/ha ([7]; post-emergence, Postemergence): 80%
pest or weed control at 125 g/ha ([7]; post-emergence, Postemergence): 90%
pest or weed control at 16 g/ha ([7]; pre-emergence, Preemergence): 60%
pest or weed control at 31 g/ha ([7]; pre-emergence, Preemergence): 90%
pest or weed control at 62 g/ha ([7]; pre-emergence, Preemergence): 100%
pest or weed control at 125 g/ha ([7]; pre-emergence, Preemergence): 100%
plant injury at 16 g/ha ([8]; post-emergence, Postemergence): 75%
plant injury at 31 g/ha ([8]; post-emergence, Postemergence): 85%
plant injury at 62 g/ha ([8]; post-emergence, Postemergence): 100%
plant injury at 125 g/ha ([8]; post-emergence, Postemergence): 100%
plant injury at 16 g/ha ([8]; pre-emergence, Preemergence): 60%
plant injury at 31 g/ha ([8]; pre-emergence, Preemergence): 100%
plant injury at 62 g/ha ([8]; pre-emergence, Preemergence): 100%
plant injury at 125 g/ha ([8]; pre-emergence, Preemergence): 100%
pest or weed control at 16 g/ha ([9]; post-emergence, Postemergence): 5%
pest or weed control at 31 g/ha ([9]; post-emergence, Postemergence): 10%
pest or weed control at 62 g/ha ([9]; post-emergence, Postemergence): 25%
pest or weed control at 125 g/ha ([9]; post-emergence, Postemergence): 35%
pest or weed control at 16 g/ha ([9]; pre-emergence, Preemergence): 10%
pest or weed control at 31 g/ha ([9]; pre-emergence, Preemergence): 35%
pest or weed control at 62 g/ha ([9]; pre-emergence, Preemergence): 45%
pest or weed control at 125 g/ha ([9]; pre-emergence, Preemergence): 80%
pest or weed control at 16 g/ha ([10]; post-emergence, Postemergence): 10%
pest or weed control at 31 g/ha ([10]; post-emergence, 31 g ai/ha, Postemergence): 20%
pest or weed control at 62 g/ha ([10]; post-emergence, Postemergence): 35%
pest or weed control at 125 g/ha ([10]; post-emergence, Postemergence): 45%
pest or weed control at 16 g/ha ([10]; pre-emergence, Preemergence): 15%
pest or weed control at 62 g/ha ([10]; pre-emergence, Preemergence): 100%
pest or weed control at 125 g/ha ([10]; pre-emergence, Preemergence): 100%
pest or weed control at 16 g/ha (wild oat (Avena fatua); post-emergence, Postemergence): 10%
pest or weed control at 31 g/ha (wild oat (Avena fatua); post-emergence, Postemergence): 20%
pest or weed control at 62 g/ha (wild oat (Avena fatua); post-emergence, Postemergence): 30%
pest or weed control at 125 g/ha (wild oat (Avena fatua); post-emergence, Postemergence): 35%
pest or weed control at 16 g/ha (wild oat (Avena fatua); pre-emergence, Preemergence): 0%
pest or weed control at 31 g/ha (wild oat (Avena fatua); pre-emergence, Preemergence): 0%
pest or weed control at 62 g/ha (wild oat (Avena fatua); pre-emergence, Preemergence): 30%
pest or weed control at 125 g/ha (wild oat (Avena fatua); pre-emergence, Preemergence): 75%
